The numbers were not newly measured in PMC10590117 (International Journal of Nanomedicine, 2023), which cites them from elsewhere.

The conditions of the data set: humans.

Consider `COc1cc(/C=C/C(=O)CC(=O)/C=C/c2ccc(O)c(OC)c2)ccc1O` [curcumin, Curcumin], for which the Peroral bioavailability is recorded as roughly 1%.
